Read-outs that look alike come from different tables or passages of the source.
What was measured:
S-180 sarcoma = assay: Transplanted S-180 sarcoma in mice, tumor inhibition
Description: Tumors, including B-16 melanoma and S-180 sarcoma, were provided by Shanghai Institute of Materia Medica of the Chinese Academy of Sciences.
The tumor tissue was made into cell suspension. The mice were inoculated subcutaneously in the right axilla with the cell suspension, about 4.5-5×10^6 cells/mouse. After 24 hours, the mice were randomly divided into different groups and housed in separate cages (n=6). […] The administration began on the second day and lasted for seven days, with different doses. The blank control group was given normal saline (NS). The animals were sacrificed and weighed (g body weight) 24 hours after drug withdrawal. The tumors were excised and weighed. The average tumor weight was calculated for each group. According to the following formula, the tumor inhibition rate was calculated and T test was conducted.
According to the formula below, the tumor inhibition rate was calculated and T test was conducted.
(§1) A=average tumor weight (g) of blank control group,
B=average tumor weight (g) of therapeutic group

B16 melanoma = assay: Transplanted B16 melanoma in mice, tumor inhibition; format: in vivo, C57 mice; settings: alone or combined, once a day for seven days
Description: The tumor tissue was made into cell suspension. […] The blank control group was given normal saline (NS). […] The tumors were excised and weighed. The average tumor weight was calculated for each group.
as §1
B =average tumor weight (g) of therapeutic group

pancreatic carcinoma = settings: cited from earlier work
liver cancer = settings: treatment group (placebo control group 7.9 months); cited from earlier work
[1] = Table 18: 5-Fluorouracil 15 mg/kg i.p, Algal proteoglycan 20 mg/kg p.o, alone or combined, once a day for seven days
[2] = Table 14: Adriamycin 1 mg/kg i.p, Algal proteoglycan 30 mg/kg p.o
[3] = Table 16: Carboplatin 4 mg/kg i.p, Algal proteoglycan 20 mg/kg p.o, alone or combined, once a day for seven days
[4] = Table 12: Carboplatin 4 mg/kg i.p, Algal proteoglycan 30 mg/kg p.o
[5] = Table 13: Carboplatin 4 mg/kg i.p, Algal proteoglycan 60 mg/kg p.o
[6] = Table 15: Cyclophosphamide 7.5 mg/kg i.p, Algal proteoglycan 60 mg/kg p.o, alone or combined, once a day for seven days
[7] = Table 17: Etoposide 3 mg/kg i.p, Algal proteoglycan 20 mg/kg p.o, alone or combined, once a day for seven days

O=c1[nH]cc(F)c(=O)[nH]1 [5-Fluorouracil, 5-fluorouracil]
inhibitory effect on the transplanted tumor of S-180 sarcoma, in words (S-180 sarcoma; 5-fluorouracil 15 mg/kg used alone): moderate inhibitory effect | Tumor Inhibition Rate (%) (S-180 sarcoma; [1]): 33.8% | Tumor Weight (g) x ± SD (S-180 sarcoma; [1]): 1.04 ± 0.52 g

COc1cccc2c1C(=O)c1c(O)c3c(c(O)c1C2=O)C[C@@](O)(C(=O)CO)C[C@@H]3O[C@H]1C[C@H](N)[C@H](O)[C@H](C)O1 [Adriamycin]
Tumor Inhibition Rate (%) (B16 melanoma; [2]): 41.5% | Tumor Weight (g) x ± SD (B16 melanoma; [2]): 1.97 ± 0.84 g

N.N.O=C([O-])C1(C(=O)[O-])CCC1.[Pt+2] [Carboplatin]
inhibitory effect on the growth of the transplanted tumor of S-180 sarcoma, in words (S-180 sarcoma; Carboplatin 4 mg/kg used alone (P>0.05)): no inhibitory effect | Body Weight (g) in the End (S-180 sarcoma; [3]): 26.4 g | Tumor Inhibition Rate (%) (S-180 sarcoma; [3]): 7.7% | Tumor Weight (g) x ± SD (S-180 sarcoma; [3]): 1.68 ± 0.53 g | Body Weight (g) in the Beginning (B16 melanoma; [4]): 18.0 g | Body Weight (g) in the End (B16 melanoma; [4]): 16.7 g | Tumor Inhibition Rate (%) (B16 melanoma; [4]): 28.2% | Tumor Weight (g) x ± SD (B16 melanoma; [4]): 1.07 ± 0.88 g | Body Weight (g) in the Beginning (B16 melanoma; [5]): 20.3 g | Tumor Inhibition Rate (%) (B16 melanoma; [5]): 14.0% | Tumor Weight (g) x ± SD (B16 melanoma; [5]): 1.23 ± 0.37 g

O=P1(N(CCCl)CCCl)NCCCO1 (stereo not drawn) [Cyclophosphamide]
Body Weight (g) in the Beginning (S-180 sarcoma; [6]): 22.8 g | Body Weight (g) in the End (S-180 sarcoma; [6]): 24.9 g | Tumor Inhibition Rate (%) (S-180 sarcoma; [6]): 42.2% | Tumor Weight (g) x ± SD (S-180 sarcoma; [6]): 1.11 ± 0.24 g

COc1cc([C@@H]2c3cc4c(cc3[C@@H](O[C@@H]3O[C@@H]5CO[C@@H](C)O[C@H]5[C@H](O)[C@H]3O)[C@H]3COC(=O)[C@H]23)OCO4)cc(OC)c1O [Etoposide]
Tumor Inhibition Rate (%) (S-180 sarcoma; [7]): 26.9% | Tumor Weight (g) x ± SD (S-180 sarcoma; [7]): 1.33 ± 0.28 g

Nc1ccn([C@@H]2O[C@H](CO)[C@@H](O)C2(F)F)c(=O)n1 [Gemcitabine FDR.]
Overall survival (pancreatic carcinoma; Poplon et al, 832 cases): 6.2 months

Nc1ccn([C@@H]2O[C@H](CO)[C@@H](O)C2(F)F)c(=O)n1 [Gemcitabine]
Overall survival (pancreatic carcinoma; Abou-Alfa et al, 349 cases): 6.2 months | Overall survival (pancreatic carcinoma; Berlin et al, 322 cases): 5.4 months | Overall survival (pancreatic carcinoma; Colucci et al, 400 cases): 7.2 months | Overall survival (pancreatic carcinoma; Cunningham et al, 533 cases): 7.1 months | Overall survival (pancreatic carcinoma; Heinemann et al, 195 cases): 6.0 months | Overall survival (pancreatic carcinoma; Hermann et al, 319 cases): 7.2 months | Overall survival (pancreatic carcinoma; Louvet et al, 313 cases): 7.1 months | Overall survival (pancreatic carcinoma; Oettle et al, 565 cases): 6.3 months | Overall survival (pancreatic carcinoma; Poplon et al, 832 cases): 4.9 months | Overall survival (pancreatic carcinoma; Rocha Lima et al, 342 cases): 6.3 months | Overall survival (pancreatic carcinoma; Starhopoulos et al, 145 cases): 6.4 months

CNC(=O)c1cc(Oc2ccc(NC(=O)Nc3ccc(Cl)c(C(F)(F)F)c3)cc2)ccn1 [Sorafenib]
median survival time (liver cancer): 10.7 months

Gemcitabine + capecitabine
Overall survival (pancreatic carcinoma; Cunningham et al, 533 cases): 6.2 months | Overall survival (pancreatic carcinoma; Hermann et al, 319 cases): 8.4 months

Gemcitabine + cisplatin
Overall survival (pancreatic carcinoma; Colucci et al, 400 cases): 8.2 months | Overall survival (pancreatic carcinoma; Heinemann et al, 195 cases): 7.5 months

From patent US11464826B2, “Composition comprising an algal proteoglycan extract and use thereof” (priority 2016, dated 2022)
